Series [1] has as its system NO-induced methemoglobinemia. The series can be described thus: NO-induced methemoglobinemia and lung inflammation after accidental NO exposure, H2 inhalation and magnesium ingestion (Example 12). Type of series: in vivo, human. The source says:
During the course of developing the described methods for producing NO for a more affordable, effective, and safe source of NO therapy, one of the inventors accidentally exposed themself both chronically and acutely to NO gas. […] Since onset of symptoms, the inventor inhaled H2 gas, produced by reacting elemental magnesium and citric acid in a glass of water.
Their condition and SpO2 worsened throughout the day, and later that night they were admitted in the emergency room at a hospital with a recorded SpO2 of 45%. The hospital verified that the inventor developed NO-induced lung inflammation by X-rays and a CAT scan. Upon the diagnosis, blood samples were taken from the inventor to measure methemoglobin levels. […] A normal methemoglobin fraction is about 1%. […] Accordingly, no methemoglobin treatment (e.g., intravenous administration of methylene blue) was administered to the inventor.

The conditions of series [2]: cited from earlier work.
Series [3] is described as follows: Inventor exposed to NO levels higher than 25 ppm during development, SpO2 oximeter. It counts as in vivo, human. From the text:
In fact, the inventor's oxygenation levels as measured by SpO2 oximeter were always in the 97-100 range. Accordingly, also disclosed herein are methods of preventing the onset of methemoglobinemia from nitrate, nitrite, or NO exposure, wherein the method comprising administering hydrogen to the subject exposed to a source of nitrate, a source of nitrite, or NO.

The conditions of series [4]: cited from earlier work. This is another data set of the same source.
For series [5] the following is noted: cited from earlier work. The source holds these as a separate data set.
Series [6] relates to subject with respiratory illness.

We go through seven molecules from US12156886B2, “Methods of increasing blood oxygen saturation” (ThermoLife International, LLC, priority 2020, dated 2024).

Molecules are shown by their SMILES.

On to `[HH]` [H2 gas, hydrogen], for which the “methemoglobin in blood samples” value in series [1] (at SpO2 of 45%, after H2 inhalation and 2000 mg elemental magnesium powder) is given as “no methemoglobin was detected”. Also, in series [1] (other experiments, SpO2 returning to normal), the “minor methemoglobinemia caused by inhalation of NO gas” value was “reversed”. The “increase in relative humidity” value (for every about 40 ppm increase in H2 concentration, 30 C) is on record as 1%. Also, the “H2 concentration shown safe (no symptoms of water in the lungs)” value (sensor limit 1000 ppm) is reported as 1000 ppm.
On to `[O]N=O` [NO2, nitrogen dioxide], for which the “permissible exposure limit in homes and offices” value in series [2] (OSHA, 9 mg/m^3) was ≤ 5 ppm. Moreover, in series [2] (OSHA), the “concentration that can trigger symptoms in asthmatic people” value is given as 2 ppm and the “concentration that starts to damage the lungs” value is 5 ppm. Also, the “levels shown to cause respiratory discomfort in vulnerable populations” value in series [2] (asthmatics) is given as ≥ 0.1 ppm. The “concentration that can kill a human” value in series [2] (exposed for about an hour) is on record as 100 ppm.
`[N]=O` [NO, nitric oxide]: the ill effects result in series [3] (NO levels higher than 25 ppm) is recorded as “no ill effects”. For the same molecule, the “oxygenation levels by SpO2 oximeter” value in series [3] (exposed multiple times to NO levels higher than 25 ppm) was 97-100. Further, the “SpO2 one day after exposure to high ambient NO” value in series [1] (ambient NO >80 ppm) was found to be 85%. The “SpO2 recorded in the emergency room later that night” value in series [1] (ambient NO >80 ppm, after prolonged H2 inhalation) turned out to be 45%. The outright toxic concentration in series [2] (in vivo) is given as ≥ 100 ppm.
For the molecule `O=NO` [Sodium nitrite], the methemoglobin level in series [4] (600 mg to an adult for cyanide toxicity, van Heijst et al.) is on record as 58%. The “lowest calculated lethal dose” value in series [4] (Katabami et al.) is reported as 2.6 grams. For the same molecule, the “dose in a reported case of severe methemoglobinemia” value in series [4] (in vivo) is given as “about 70 mg”.
Take `O=[N+]([O-])O` [nitrate alone]: in series [5] (409 mg and 479 mg doses, Rosetti et al., Barlow et al.), the oxygen saturation entry is on record as “failed to produce any increase in oxygen saturation”.
Turning to `O=[N+]([O-])[O-].[K+]` [potassium nitrate], the “lower blood oxygen saturation versus the placebo” value in series [5] (hypoxic conditions, Schiffer et al.) is given as “about 3%”. In addition, the “other symptoms (weakness, coughing)” value in series [6] (human, in vivo) is “no attenuation of their other symptoms”. For the same molecule, the “SpO2 for up to 4 hours after administration” value in series [6] (person) is on record as “showed no signs of increase”. The “SpO2 15 minutes after administration” value in series [6] (person, baseline 93%) worked out at 93%.
Take `O=[N+]([O-])[O-].[Na+]` [sodium nitrate]: the “oxygen consumption during exercise” value in series [5] (Larsen et al., Bailey et al.) is recorded as “reduce oxygen consumption during exercise”.
